# Laboratory results as given in ChEMBL document CHEMBL1135364, “Synthesis and structure-activity relationships of oxime neurokinin antagonists: discovery of potent arylamides” (Bioorg Med Chem Lett, 2002).
# Experiments:
# [1] = target: T1, Substance-P receptor (Homo sapiens, UniProt P25103); assay: Tested for binding affinity against neurokinin 1 (NK1) receptor
# [2] = target: T2, Substance-K receptor (Homo sapiens, UniProt P21452); assay: Binding affinity test against Neurokinin 2 (NK2) receptor
# T2 sequence (P21452 whole entry): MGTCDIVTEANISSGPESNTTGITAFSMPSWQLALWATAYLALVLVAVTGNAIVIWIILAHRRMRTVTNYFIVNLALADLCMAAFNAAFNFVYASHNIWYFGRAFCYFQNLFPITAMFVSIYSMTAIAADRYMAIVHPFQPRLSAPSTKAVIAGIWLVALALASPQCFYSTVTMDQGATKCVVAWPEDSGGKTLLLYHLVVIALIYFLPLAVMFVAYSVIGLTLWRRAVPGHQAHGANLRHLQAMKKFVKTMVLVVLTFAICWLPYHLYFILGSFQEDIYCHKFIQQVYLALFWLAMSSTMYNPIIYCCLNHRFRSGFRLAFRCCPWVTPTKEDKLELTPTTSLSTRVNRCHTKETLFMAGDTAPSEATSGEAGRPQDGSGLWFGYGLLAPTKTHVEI
# [3] = target: T1, Substance-P receptor; assay: Affinity for human Neurokinin 1 (NK1) receptor expressed in CHO cells at 1 uM; format: cell-based
# [4] = target: T2, Substance-K receptor; assay: Tested for binding affinity of compound against Tachykinin receptor 2
# [5] = target: T3, Substance-K receptor (Homo sapiens) (UniProt P21452); assay: Tested for binding affinity of compound against Neurokinin 2 (NK2) receptor at 1 uM
# T3 sequence (whole entry): T2 sequence (P21452 whole entry)
# T1 sequence (P25103 whole entry): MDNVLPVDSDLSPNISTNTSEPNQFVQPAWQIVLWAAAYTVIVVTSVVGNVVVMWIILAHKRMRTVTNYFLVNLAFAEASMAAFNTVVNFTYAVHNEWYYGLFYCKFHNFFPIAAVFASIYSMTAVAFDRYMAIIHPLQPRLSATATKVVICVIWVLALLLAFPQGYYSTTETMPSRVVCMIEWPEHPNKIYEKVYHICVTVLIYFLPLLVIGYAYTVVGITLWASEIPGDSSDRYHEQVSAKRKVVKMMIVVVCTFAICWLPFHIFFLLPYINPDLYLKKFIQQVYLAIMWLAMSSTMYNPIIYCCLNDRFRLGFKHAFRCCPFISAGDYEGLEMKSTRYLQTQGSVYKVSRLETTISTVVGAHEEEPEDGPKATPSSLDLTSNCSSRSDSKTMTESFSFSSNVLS
SMILES,Ki [1] [nM],Ki [2] [nM],further results
CO/N=C(\CN(C)C(=O)c1cc(Cl)cc(Cl)c1)C(CCN1CCC(O)(c2ccccc2)CC1)c1ccc(Cl)c(Cl)c1 (stereo unspecified),2,4,
CO/N=C(\CN(C)C(=O)c1cc(C)nc(C)c1)C(CCN1CCC(O)(c2ccccc2)CC1)c1ccc(Cl)c(Cl)c1 (stereo unspecified),,6,
CO/N=C(\CN(C)Cc1cc(C(F)(F)F)cc(C(F)(F)F)c1)C(CCN1CCC(O)(c2ccccc2)CC1)c1ccc(Cl)c(Cl)c1 (stereo unspecified),42,22,
CO/N=C(\C(C)OCc1cc(C(F)(F)F)cc(C(F)(F)F)c1)C(CCN1CCC(O)(c2ccccc2)CC1)c1ccc(Cl)c(Cl)c1 (stereo unspecified),75,157,
CO/N=C(\COCc1ccc(-c2ccccc2)cc1)C(CCN1CCC(O)(c2ccccc2)CC1)c1ccc(Cl)c(Cl)c1 (stereo unspecified),,38,inhibition [3]: 2%
CO/N=C(\COCc1cc(F)cc(C(F)(F)F)c1)C(CCN1CCC(O)(c2ccccc2)CC1)c1ccc(Cl)c(Cl)c1 (stereo unspecified),,10,
CO/N=C(\CN(C)C(=O)c1cc(OC)c(OC)c(OC)c1)C(CCN1CCC(O)(c2ccccc2)CC1)c1ccc(Cl)c(Cl)c1 (stereo unspecified),,3,
CO/N=C(\COCc1ccc2ccc(C(F)(F)F)nc2c1)C(CCN1CCC(O)(c2ccccc2)CC1)c1ccc(Cl)c(Cl)c1 (stereo unspecified),,20,inhibition [3]: 23%
CO/N=C(\COCC1CCCCC1)C(CCN1CCC(O)(c2ccccc2)CC1)c1ccc(Cl)c(Cl)c1 (stereo unspecified),,13,inhibition [3]: 21%
CO/N=C(/COCc1cc(C(F)(F)F)cc(C(F)(F)F)c1)C(CCN1CCC(O)(c2ccccc2)CC1)c1ccc(Cl)c(Cl)c1 (stereo unspecified),,,Ki [4]: 21 nM
CO/N=C(\COCc1ccccn1)C(CCN1CCC(O)(c2ccccc2)CC1)c1ccc(Cl)c(Cl)c1 (stereo unspecified),,43,
CO/N=C(\CN(C)C(=O)c1ccc(N(C)C)c2ccccc12)C(CCN1CCC(O)(c2ccccc2)CC1)c1ccc(Cl)c(Cl)c1 (stereo unspecified),,7,
CO/N=C(\COC/C=C/c1cc(C(F)(F)F)cc(C(F)(F)F)c1)C(CCN1CCC(O)(c2ccccc2)CC1)c1ccc(Cl)c(Cl)c1 (stereo unspecified),,20,inhibition [3]: 36%
CO/N=C(\CN(C)C(=O)c1cc(C)nc(N2CCCC2)c1)C(CCN1CCC(O)(c2ccccc2)CC1)c1ccc(Cl)c(Cl)c1 (stereo unspecified),2,3,
CO/N=C(\COCC12CC3CC(CC(C3)C1)C2)C(CCN1CCC(O)(c2ccccc2)CC1)c1ccc(Cl)c(Cl)c1 (stereo unspecified),,7,inhibition [3]: 0%
CO/N=C(\CN(C)C(=O)c1ccc(C)s1)C(CCN1CCC(O)(c2ccccc2)CC1)c1ccc(Cl)c(Cl)c1 (stereo unspecified),,2,
CO/N=C(\COCc1cc(F)cc(F)c1)C(CCN1CCC(O)(c2ccccc2)CC1)c1ccc(Cl)c(Cl)c1 (stereo unspecified),,42,
CO/N=C(\COCCc1cc(C(F)(F)F)cc(C(F)(F)F)c1)C(CCN1CCC(O)(c2ccccc2)CC1)c1ccc(Cl)c(Cl)c1 (stereo unspecified),39,118,
CO/N=C(\CN(C)C(=O)c1cc(C)nc(N(C)C)c1)C(CCN1CCC(O)(c2ccccc2)CC1)c1ccc(Cl)c(Cl)c1 (stereo unspecified),2,1,
CO/N=C(\CN(C)C(=O)c1cncc(Br)c1)C(CCN1CCC(O)(c2ccccc2)CC1)c1ccc(Cl)c(Cl)c1 (stereo unspecified),7,4,
CO/N=C(\COC(=O)Nc1cc(C(F)(F)F)cc(C(F)(F)F)c1)C(CCN1CCC(O)(c2ccccc2)CC1)c1ccc(Cl)c(Cl)c1 (stereo unspecified),32,35,
CO/N=C(\CNCc1cc(C(F)(F)F)cc(C(F)(F)F)c1)C(CCN1CCC(O)(c2ccccc2)CC1)c1ccc(Cl)c(Cl)c1 (stereo unspecified),50,130,
CO/N=C(\CN(C)C(=O)c1cc(C)nc(-c2cccs2)c1)C(CCN1CCC(O)(c2ccccc2)CC1)c1ccc(Cl)c(Cl)c1 (stereo unspecified),2,6,
CO/N=C(\COCc1ccc2nonc2c1)C(CCN1CCC(O)(c2ccccc2)CC1)c1ccc(Cl)c(Cl)c1 (stereo unspecified),,17,inhibition [3]: 29%
CO/N=C(\COCc1cc(C)cc(C)c1)C(CCN1CCC(O)(c2ccccc2)CC1)c1ccc(Cl)c(Cl)c1 (stereo unspecified),,8,
CO/N=C(\COCc1ccccc1)C(CCN1CCC(O)(c2ccccc2)CC1)c1ccc(Cl)c(Cl)c1 (stereo unspecified),,40,inhibition [3]: 33%
CO/N=C(\CN(C)C(=O)Nc1cc(C(F)(F)F)cc(C(F)(F)F)c1)C(CCN1CCC(O)(c2ccccc2)CC1)c1ccc(Cl)c(Cl)c1 (stereo unspecified),5,8,

SMILES,Ki [1] [nM],Ki [2] [nM],further results
CO/N=C(\CN(C)S(=O)(=O)c1cc(C(F)(F)F)cc(C(F)(F)F)c1)C(CCN1CCC(O)(c2ccccc2)CC1)c1ccc(Cl)c(Cl)c1 (stereo unspecified),435,286,
CO/N=C(\CCc1cc(C(F)(F)F)cc(C(F)(F)F)c1)C(CCN1CCC(O)(c2ccccc2)CC1)c1ccc(Cl)c(Cl)c1 (stereo unspecified),23,,inhibition [5]: 51%
CO/N=C(\COC(=O)c1cc(C(F)(F)F)cc(C(F)(F)F)c1)C(CCN1CCC(O)(c2ccccc2)CC1)c1ccc(Cl)c(Cl)c1 (stereo unspecified),168,25,
CO/N=C(\COCc1ccc(F)c2ccccc12)C(CCN1CCC(O)(c2ccccc2)CC1)c1ccc(Cl)c(Cl)c1 (stereo unspecified),,21,
CO/N=C(\COCc1cc(Br)cc(Br)c1)C(CCN1CCC(O)(c2ccccc2)CC1)c1ccc(Cl)c(Cl)c1 (stereo unspecified),10,15,
CO/N=C(\COCc1ccc2sc(C)nc2c1)C(CCN1CCC(O)(c2ccccc2)CC1)c1ccc(Cl)c(Cl)c1 (stereo unspecified),,21,inhibition [3]: 48%
CO/N=C(\COCc1cc(OC)cc(OC)c1)C(CCN1CCC(O)(c2ccccc2)CC1)c1ccc(Cl)c(Cl)c1 (stereo unspecified),,18,
CO/N=C(\CO/C=C/c1cc(C(F)(F)F)cc(C(F)(F)F)c1)C(CCN1CCC(O)(c2ccccc2)CC1)c1ccc(Cl)c(Cl)c1 (stereo unspecified),,100,inhibition [3]: 20%
CO/N=C(\CCCc1cc(C(F)(F)F)cc(C(F)(F)F)c1)C(CCN1CCC(O)(c2ccccc2)CC1)c1ccc(Cl)c(Cl)c1 (stereo unspecified),92,332,
CO/N=C(\CN(C)C(=O)c1cc(C(F)(F)F)cc(C(F)(F)F)c1)C(CCN1CCC(O)(c2ccccc2)CC1)c1ccc(Cl)c(Cl)c1 (stereo unspecified),4,9,
CO/N=C(\COCc1cc(Cl)cc(Cl)c1)C(CCN1CCC(O)(c2ccccc2)CC1)c1ccc(Cl)c(Cl)c1 (stereo unspecified),,6,
CO/N=C(\CN(C)C(=O)c1cc(OC)c(Br)c(OC)c1)C(CCN1CCC(O)(c2ccccc2)CC1)c1ccc(Cl)c(Cl)c1 (stereo unspecified),5,8,
CO/N=C(\COCc1cc(C(C)(C)C)cc(C(C)(C)C)c1)C(CCN1CCC(O)(c2ccccc2)CC1)c1ccc(Cl)c(Cl)c1 (stereo unspecified),,130,inhibition [3]: 19%
CO/N=C(\CN(C)C(=O)c1cc(C)cc(C)c1)C(CCN1CCC(O)(c2ccccc2)CC1)c1ccc(Cl)c(Cl)c1 (stereo unspecified),1,2,
CO/N=C(\COCc1ccc2ccccc2c1)C(CCN1CCC(O)(c2ccccc2)CC1)c1ccc(Cl)c(Cl)c1 (stereo unspecified),,12,inhibition [3]: 37%
CO/N=C(\COCc1ccc(C)cc1)C(CCN1CCC(O)(c2ccccc2)CC1)c1ccc(Cl)c(Cl)c1 (stereo unspecified),,9,inhibition [3]: 48%
CO/N=C(\COCc1ccccc1C)C(CCN1CCC(O)(c2ccccc2)CC1)c1ccc(Cl)c(Cl)c1 (stereo unspecified),,136,inhibition [3]: 34%
CO/N=C(\COCc1ccc(C(C)(C)C)cc1)C(CCN1CCC(O)(c2ccccc2)CC1)c1ccc(Cl)c(Cl)c1 (stereo unspecified),,4,inhibition [3]: 6%
CO/N=C(\CNC(=O)c1cc(C(F)(F)F)cc(C(F)(F)F)c1)C(CCN1CCC(O)(c2ccccc2)CC1)c1ccc(Cl)c(Cl)c1 (stereo unspecified),,2,
CO/N=C(\CNC(=O)c1ccccc1OC)C(CCN1CCC(O)(c2ccccc2)CC1)c1ccc(Cl)c(Cl)c1 (stereo unspecified),,54,
CO/N=C(\CN(C)C(=O)c1ccccc1OC)C(CCN1CCC(O)(c2ccccc2)CC1)c1ccc(Cl)c(Cl)c1 (stereo unspecified),,4,
CO/N=C(\COCc1noc(C(C)(C)C)n1)C(CCN1CCC(O)(c2ccccc2)CC1)c1ccc(Cl)c(Cl)c1 (stereo unspecified),,1,
CO/N=C(\CN(C)C(=O)c1cc(OC)cc(OC)c1)C(CCN1CCC(O)(c2ccccc2)CC1)c1ccc(Cl)c(Cl)c1 (stereo unspecified),5,2,
CO/N=C(\CN(C)C(=O)Oc1cc(C(F)(F)F)cc(C(F)(F)F)c1)C(CCN1CCC(O)(c2ccccc2)CC1)c1ccc(Cl)c(Cl)c1 (stereo unspecified),6,11,
CO/N=C(\C(=O)N(C)Cc1cc(C(F)(F)F)cc(C(F)(F)F)c1)C(CCN1CCC(O)(c2ccccc2)CC1)c1ccc(Cl)c(Cl)c1 (stereo unspecified),6,167,
CO/N=C(\COCc1cc(OC)c(OC)c(OC)c1)C(CCN1CCC(O)(c2ccccc2)CC1)c1ccc(Cl)c(Cl)c1 (stereo unspecified),,28,
CO/N=C(\COc1cc(C(F)(F)F)cc(C(F)(F)F)c1)C(CCN1CCC(O)(c2ccccc2)CC1)c1ccc(Cl)c(Cl)c1 (stereo unspecified),81,,inhibition [5]: 31%
